Measured values from publication PMC9865188 (Pharmaceutics, 2023).
Where two headings read alike, the source gives them in different places.

Key:
Caco-2 cells [1] = tested on: Caco-2 cells
MDCKII-MDR1 cells = experiment: Monolayer integrity: lucifer yellow permeability, MDCKII-MDR1 (series 2); conditions: MDCKII-MDR1, series 2, 100 µM lucifer yellow
Method: For (2) and (3), passive permeability was assessed by supplementation of 100 µM lucifer yellow to all donor solutions.
Papp was calculated by dividing the flux with the measured donor concentration.

Caco-2 cells [2] = tested on: Caco-2 cells; remark: listed apart in the source
[3] = cited from earlier work

Question: Which Lucifer yellow permeability (Caco-2 cells [1]) does the source give for lucifer yellow here?
Answer: 0.15–1.1 × 10^−6 cm/s

Question: What about the Lucifer yellow permeability (MDCKII-MDR1 cells) of the same compound?
Answer: 0.39–1.2 × 10^−6 cm/s

Question: For `OC[C@@H](O)[C@@H](O)[C@H](O)[C@H](O)CO` [^3H-mannitol], which 3H-mannitol permeability (Caco-2 cells [2]) is on record?
Answer: 0.31–1.4 × 10^−6 cm/s

Question: Which “critical micelle concentration (CMC)” value ([3]; in water, temperatures of 22–40 °C) does the source give for polysorbate 20 here?
Answer: 11 to 57 µM

Question: And the “critical micelle concentration (CMC)” value ([3]; room temperature)?
Answer: 11 to 42 µM
